Data: publication PMC3119665, “A New Drug Design Targeting the Adenosinergic System for Huntington's Disease” (PLoS ONE, 2011)

Tests used:
Adrenergic α 2C = target: T1, Adrenergic α 2C (Homo sapiens, UniProt P18825); assay: Radioligand binding panel (Table S1); conditions: 10 μM T1-11, n 2
T1 construct: purchased MDS Pharma Services Taiwan

[1] = target: T2, N-Formyl Peptide Receptor-like, FPRL1 (Homo sapiens, UniProt P25090); assay: Radioligand binding panel (Table S1); conditions: 10 μM T1-11, n 2
T2 construct: purchased MDS Pharma Services Taiwan

R6/2 mice = assay: Hemodynamic examination of R6/2 mice; assay type: in vivo; conditions: subcutaneous Alzet minipump for 48 h, 125 µg/mouse/day
Method: Heart rates and blood pressure of conscious and anesthetized mice were measured using a blood pressure monitor (model MK-2000; Muromachi Kikai, Tokyo, Japan) between 10 AM to 6 PM. Values of 12–18 successful readings per mouse were used to determine the blood pressure.
(A) T1-11 (125 µg/mouse/day) or vehicle (CON) was administrated subcutaneously to the indicated mice of 7 weeks old using ALZET osmotic minipumps for 6 weeks. Rotarod performance was assessed. (B, C) T1-11 (125 µg/mouse/day) was administrated subcutaneously to the indicated mice of 9 weeks old using ALZET osmotic minipumps for 48 h. Heart rate (B) and blood pressure (C) were determined by a tail-cuff method. * p<0.05. *** p<0.005. (TIF) Click here for additional data file.

Adrenomedullin AM1 = target: T3, Adrenomedullin AM1 (Homo sapiens, UniProt O60895+Q16602); assay: Radioligand binding panel (Table S1); conditions: 10 μM T1-11, n 2
T3 construct: purchased MDS Pharma Services Taiwan

Opiate δ (OP1, DOP) = target: T4, Opiate δ (OP1, DOP) (Homo sapiens, UniProt P41143); assay: Radioligand binding panel (Table S1); conditions: 10 μM T1-11, n 2
T4 construct: purchased MDS Pharma Services Taiwan

[2] = target: T5, Nicotinic Acetylcholine α1, Bungarotoxin (Homo sapiens, UniProt P02708+P07510+Q07001); assay: Radioligand binding panel (Table S1)
T5 construct: purchased MDS Pharma Services Taiwan

[3] = target: T6, Epidermal Growth Factor (EGF) (Homo sapiens, UniProt P00533); assay: Radioligand binding panel (Table S1); conditions: 10 μM T1-11, n 2
T6 construct: purchased MDS Pharma Services Taiwan

human A3R = target: T7, human A3R (Homo sapiens, UniProt P0DMS8); assay: GTPγS binding assay; assay type: biochemical
T7 construct: host or cells: CHO-K1
Method: The GTPγS binding assay was conducted by MDS Pharma Services Taiwan using a previously described protocol with slight modifications. In brief, membrane proteins collected from Chinese hamster ovary (CHO-K1) cells expressing the human A3R (5∼10 µg per reaction) were incubated with the indicated drug and ^35S-GTPγS (0.1 nM) in a total volume of 500 µl for 30 min at 30°C. The reaction buffer was composed of 20 mM HEPES (pH 7.4), 100 mM NaCl, 10 mM MgCl2, 1 mM DTT, and 1 mM EDTA. The reaction was terminated by filtration over GF/B glass fibers and washed with the same reaction buffer. Relative GTPγS binding was defined as the percentage of ^35S-GTPγS binding when compared to that of a selective agonist of the A3R (2-Cl-IB-MECA, 3 µM) under the same binding conditions.
Supplementary file pone.0020934.s004.tif: Figure S4 T1-11 binds to the A3 adenosine receptor (A3R) without evoking a significant binding of GTP. Membrane fractions collected from CHO-K1 cells expressing the human A3R were incubated with T1-11 at the indicated concentration and ^35S-GTPγS (0.1 nM) for 30 min at 30°C. Relative GTPγS binding was defined as the percentage of ^35S-GTPγS binding when compared with a selective agonist of the A3R (2-Cl-IB-MECA, 3 µM). (TIF) Click here for additional data file.

[4] = target: T8, Nicotinic Acetylcholine α7, Bungarotoxin (Rattus norvegicus, UniProt Q05941); assay: Radioligand binding panel (Table S1)
T8 construct: purchased MDS Pharma Services Taiwan

Bombesin, Non-Selective = assay: Radioligand binding panel (Table S1); parameters: species or system rat; conditions: 10 μM T1-11, n 2
Dopamine D1 = target: T9, Dopamine D1 (Homo sapiens, UniProt P21728); assay: Radioligand binding panel (Table S1); conditions: 10 μM T1-11, n 2
T9 construct: purchased MDS Pharma Services Taiwan

Orphanin ORL1 = target: T10, Orphanin ORL1 (Homo sapiens, UniProt P41146); assay: Radioligand binding panel (Table S1); conditions: 10 μM T1-11, n 2
T10 construct: purchased MDS Pharma Services Taiwan

Sigma σ1 = target: T11, Sigma σ1 (Homo sapiens, UniProt Q99720); assay: Radioligand binding panel (Table S1); conditions: 10 μM T1-11, n 2
T11 construct: purchased MDS Pharma Services Taiwan

[5] = target: T12, Leukotriene, Cysteinyl CysLT2 (Homo sapiens, UniProt Q9NS75); assay: Radioligand binding panel (Table S1); conditions: 10 μM T1-11, n 2
T12 construct: purchased MDS Pharma Services Taiwan

Sigma σ2 = target: T13, Sigma σ2 (Rattus norvegicus, UniProt Q5U3Y7); assay: Radioligand binding panel (Table S1); conditions: 10 μM T1-11, n 2
T13 construct: purchased MDS Pharma Services Taiwan

Glutamate, AMPA = assay: Radioligand binding panel (Table S1); parameters: species or system rat; conditions: 10 μM T1-11, n 2
Vasopressin V1A = target: T14, Vasopressin V1A (Homo sapiens, UniProt P37288); assay: Radioligand binding panel (Table S1); conditions: 10 μM T1-11, n 2
T14 construct: purchased MDS Pharma Services Taiwan

Purinergic P 2Y = assay: Radioligand binding panel (Table S1); parameters: species or system rat; conditions: 10 μM T1-11, n 2
Muscarinic M2 = target: T15, Muscarinic M2 (Homo sapiens, UniProt P08172); assay: Radioligand binding panel (Table S1); conditions: 10 μM T1-11, n 2
T15 construct: purchased MDS Pharma Services Taiwan

Somatostatin sst4 = target: T16, Somatostatin sst4 (Homo sapiens, UniProt P31391); assay: Radioligand binding panel (Table S1); conditions: 10 μM T1-11, n 2
T16 construct: purchased MDS Pharma Services Taiwan

Endothelin ETA = target: T17, Endothelin ETA (Homo sapiens, UniProt P25101); assay: Radioligand binding panel (Table S1); conditions: 10 μM T1-11, n 2
T17 construct: purchased MDS Pharma Services Taiwan

[6] = target: T18, Prostanoid, Thromboxane A2 (TP) (Homo sapiens, UniProt P21731); assay: Radioligand binding panel (Table S1); conditions: 10 μM T1-11, n 2
T18 construct: purchased MDS Pharma Services Taiwan

Erythropoietin EPOR = target: T19, Erythropoietin EPOR (Homo sapiens, UniProt P19235); assay: Radioligand binding panel (Table S1); conditions: 10 μM T1-11, n 2
T19 construct: purchased MDS Pharma Services Taiwan

Vasopressin V2 = target: T20, Vasopressin V2 (Homo sapiens, UniProt P30518); assay: Radioligand binding panel (Table S1); conditions: 10 μM T1-11, n 2
T20 construct: purchased MDS Pharma Services Taiwan

Insulin = assay: Radioligand binding panel (Table S1); parameters: species or system rat; conditions: 10 μM T1-11, n 2
[7] = target: T21, Serotonin (5-Hydroxytryptamine) 5-HT7 (Homo sapiens, UniProt P34969); assay: Radioligand binding panel (Table S1); conditions: 10 μM T1-11, n 2
T21 construct: purchased MDS Pharma Services Taiwan

Glucocorticoid = target: T22, Glucocorticoid (Homo sapiens, UniProt P04150); assay: Radioligand binding panel (Table S1); conditions: 10 μM T1-11, n 2
T22 construct: purchased MDS Pharma Services Taiwan

[8] = test system: Melatonin MT, Non-Selective; assay: Radioligand binding panel (Table S1); parameters: species or system chicken; conditions: 10 μM T1-11, n 2
[9] = target: T23, Platelet Activating Factor (PAF) (Homo sapiens, UniProt P25105); assay: Radioligand binding panel (Table S1); conditions: 10 μM T1-11, n 2
T23 construct: purchased MDS Pharma Services Taiwan

Adrenergic β 3 = target: T24, Adrenergic β 3 (Homo sapiens, UniProt P13945); assay: Radioligand binding panel (Table S1); conditions: 10 μM T1-11, n 2
T24 construct: purchased MDS Pharma Services Taiwan

T7 sequence (P0DMS8 whole entry): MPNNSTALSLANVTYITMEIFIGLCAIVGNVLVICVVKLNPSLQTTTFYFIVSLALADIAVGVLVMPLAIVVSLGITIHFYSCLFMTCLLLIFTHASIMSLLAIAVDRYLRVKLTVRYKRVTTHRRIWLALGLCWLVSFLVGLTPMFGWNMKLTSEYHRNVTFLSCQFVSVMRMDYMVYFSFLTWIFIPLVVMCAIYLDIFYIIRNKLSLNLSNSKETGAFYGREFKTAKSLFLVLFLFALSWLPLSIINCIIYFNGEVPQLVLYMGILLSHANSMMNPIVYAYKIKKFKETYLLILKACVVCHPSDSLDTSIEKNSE
T17 sequence (P25101 21-427): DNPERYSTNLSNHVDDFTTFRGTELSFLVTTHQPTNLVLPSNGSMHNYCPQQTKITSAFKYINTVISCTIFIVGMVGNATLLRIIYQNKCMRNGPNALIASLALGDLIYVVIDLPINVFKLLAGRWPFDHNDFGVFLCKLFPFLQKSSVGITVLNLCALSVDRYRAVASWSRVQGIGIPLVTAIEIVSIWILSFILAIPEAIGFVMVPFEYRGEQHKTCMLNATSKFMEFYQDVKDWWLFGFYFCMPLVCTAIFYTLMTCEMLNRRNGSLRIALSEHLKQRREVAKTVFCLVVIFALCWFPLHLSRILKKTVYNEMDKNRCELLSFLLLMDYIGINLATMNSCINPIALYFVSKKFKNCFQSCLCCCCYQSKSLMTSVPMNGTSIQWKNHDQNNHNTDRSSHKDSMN
T5 sequence (P02708 21-457): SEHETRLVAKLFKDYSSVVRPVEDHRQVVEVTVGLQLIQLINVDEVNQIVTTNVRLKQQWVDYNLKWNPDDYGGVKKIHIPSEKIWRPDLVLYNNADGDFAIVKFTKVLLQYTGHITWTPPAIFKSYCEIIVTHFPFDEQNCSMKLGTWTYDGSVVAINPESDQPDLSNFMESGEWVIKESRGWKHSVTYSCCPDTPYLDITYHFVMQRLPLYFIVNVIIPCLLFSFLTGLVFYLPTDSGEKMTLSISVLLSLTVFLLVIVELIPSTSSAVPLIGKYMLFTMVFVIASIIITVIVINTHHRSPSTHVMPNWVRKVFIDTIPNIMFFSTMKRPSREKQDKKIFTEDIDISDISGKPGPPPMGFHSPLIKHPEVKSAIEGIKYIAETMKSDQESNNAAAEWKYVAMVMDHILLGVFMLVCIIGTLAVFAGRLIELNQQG
T5 sequence (P11230 24-501, further chain): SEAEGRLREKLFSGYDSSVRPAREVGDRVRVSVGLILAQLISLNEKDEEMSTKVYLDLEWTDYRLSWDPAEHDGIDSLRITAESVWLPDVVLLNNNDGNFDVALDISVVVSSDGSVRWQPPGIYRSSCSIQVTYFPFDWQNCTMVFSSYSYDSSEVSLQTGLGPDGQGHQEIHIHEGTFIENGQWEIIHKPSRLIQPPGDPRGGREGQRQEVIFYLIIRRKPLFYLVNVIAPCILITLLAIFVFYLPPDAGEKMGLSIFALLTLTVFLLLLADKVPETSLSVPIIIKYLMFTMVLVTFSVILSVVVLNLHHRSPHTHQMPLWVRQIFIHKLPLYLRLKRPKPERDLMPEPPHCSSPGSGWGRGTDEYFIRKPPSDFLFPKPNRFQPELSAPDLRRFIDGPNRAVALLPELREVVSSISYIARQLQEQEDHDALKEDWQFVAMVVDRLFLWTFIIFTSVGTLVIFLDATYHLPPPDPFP
T5 sequence (Q07001 22-517): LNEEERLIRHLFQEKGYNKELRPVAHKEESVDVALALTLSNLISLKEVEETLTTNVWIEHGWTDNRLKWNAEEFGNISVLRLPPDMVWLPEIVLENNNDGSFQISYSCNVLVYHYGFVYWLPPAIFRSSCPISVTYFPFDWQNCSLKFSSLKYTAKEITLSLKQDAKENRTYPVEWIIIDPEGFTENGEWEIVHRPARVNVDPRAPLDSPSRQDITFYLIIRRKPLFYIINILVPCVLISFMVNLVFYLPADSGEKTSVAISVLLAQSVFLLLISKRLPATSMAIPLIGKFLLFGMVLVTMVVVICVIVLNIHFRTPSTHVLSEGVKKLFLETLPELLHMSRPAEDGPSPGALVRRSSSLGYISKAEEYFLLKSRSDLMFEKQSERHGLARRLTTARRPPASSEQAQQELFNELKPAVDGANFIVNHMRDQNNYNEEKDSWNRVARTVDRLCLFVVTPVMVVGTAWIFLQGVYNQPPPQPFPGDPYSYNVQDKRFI
T5 sequence (P07510 23-517): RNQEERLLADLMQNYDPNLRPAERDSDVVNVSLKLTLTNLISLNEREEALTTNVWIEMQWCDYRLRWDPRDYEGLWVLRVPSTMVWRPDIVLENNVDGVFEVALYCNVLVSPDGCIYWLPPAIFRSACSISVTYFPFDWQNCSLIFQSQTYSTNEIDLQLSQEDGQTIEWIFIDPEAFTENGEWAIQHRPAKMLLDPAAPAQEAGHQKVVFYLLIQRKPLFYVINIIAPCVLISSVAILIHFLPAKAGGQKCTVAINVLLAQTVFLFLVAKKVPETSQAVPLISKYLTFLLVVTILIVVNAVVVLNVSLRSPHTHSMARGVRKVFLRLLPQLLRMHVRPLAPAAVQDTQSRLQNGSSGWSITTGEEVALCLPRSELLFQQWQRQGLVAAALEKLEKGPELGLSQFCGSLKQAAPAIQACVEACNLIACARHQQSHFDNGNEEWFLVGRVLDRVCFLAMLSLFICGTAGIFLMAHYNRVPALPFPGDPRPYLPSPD
T15 sequence (P08172 whole entry): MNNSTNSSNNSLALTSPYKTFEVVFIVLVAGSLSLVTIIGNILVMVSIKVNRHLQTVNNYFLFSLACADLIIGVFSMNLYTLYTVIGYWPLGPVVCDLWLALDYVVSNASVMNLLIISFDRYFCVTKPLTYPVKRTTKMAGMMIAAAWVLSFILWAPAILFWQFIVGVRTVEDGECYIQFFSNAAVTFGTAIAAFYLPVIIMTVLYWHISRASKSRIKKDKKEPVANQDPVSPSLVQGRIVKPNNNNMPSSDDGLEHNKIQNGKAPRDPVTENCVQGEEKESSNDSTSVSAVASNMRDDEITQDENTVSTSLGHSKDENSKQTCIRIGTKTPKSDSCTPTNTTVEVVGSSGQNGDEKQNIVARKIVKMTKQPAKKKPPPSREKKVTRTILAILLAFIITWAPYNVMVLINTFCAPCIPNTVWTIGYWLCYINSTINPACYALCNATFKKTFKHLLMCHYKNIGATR
T13 sequence (Q5U3Y7 whole entry): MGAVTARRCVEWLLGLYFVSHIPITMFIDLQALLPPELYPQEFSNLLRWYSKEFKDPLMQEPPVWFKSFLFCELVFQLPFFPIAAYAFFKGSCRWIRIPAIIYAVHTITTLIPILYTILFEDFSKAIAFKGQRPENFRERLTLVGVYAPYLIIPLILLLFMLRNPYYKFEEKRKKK
T14 sequence (P37288 whole entry): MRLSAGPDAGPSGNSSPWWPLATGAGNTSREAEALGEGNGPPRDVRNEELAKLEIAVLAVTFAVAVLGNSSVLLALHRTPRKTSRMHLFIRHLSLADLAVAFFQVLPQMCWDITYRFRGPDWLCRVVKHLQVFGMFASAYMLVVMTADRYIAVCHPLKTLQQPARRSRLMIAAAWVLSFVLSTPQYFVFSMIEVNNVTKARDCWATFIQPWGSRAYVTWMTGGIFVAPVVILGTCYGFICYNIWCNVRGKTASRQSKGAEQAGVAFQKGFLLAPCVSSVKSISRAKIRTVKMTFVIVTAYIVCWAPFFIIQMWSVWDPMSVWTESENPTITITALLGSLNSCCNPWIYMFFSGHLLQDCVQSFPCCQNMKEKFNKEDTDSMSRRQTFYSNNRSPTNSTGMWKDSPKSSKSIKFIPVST
T12 sequence (Q9NS75 whole entry): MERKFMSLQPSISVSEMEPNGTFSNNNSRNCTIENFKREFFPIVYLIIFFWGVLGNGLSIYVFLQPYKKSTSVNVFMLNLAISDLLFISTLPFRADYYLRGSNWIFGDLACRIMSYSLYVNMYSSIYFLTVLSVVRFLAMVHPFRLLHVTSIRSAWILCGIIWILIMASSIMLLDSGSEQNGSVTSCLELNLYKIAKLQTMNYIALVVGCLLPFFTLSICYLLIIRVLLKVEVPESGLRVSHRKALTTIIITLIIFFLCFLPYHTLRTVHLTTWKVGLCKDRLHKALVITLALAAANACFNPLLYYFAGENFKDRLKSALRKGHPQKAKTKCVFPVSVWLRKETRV
T2 sequence (P25090 whole entry): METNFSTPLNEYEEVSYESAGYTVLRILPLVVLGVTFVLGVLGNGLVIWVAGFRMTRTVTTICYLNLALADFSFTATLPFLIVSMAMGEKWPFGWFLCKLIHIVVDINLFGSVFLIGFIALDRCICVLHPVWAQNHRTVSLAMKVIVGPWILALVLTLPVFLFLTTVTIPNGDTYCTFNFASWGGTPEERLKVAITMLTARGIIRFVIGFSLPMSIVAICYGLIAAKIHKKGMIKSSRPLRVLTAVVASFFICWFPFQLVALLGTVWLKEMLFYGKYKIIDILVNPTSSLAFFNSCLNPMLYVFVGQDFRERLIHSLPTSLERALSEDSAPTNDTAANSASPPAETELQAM
T1 sequence (P18825 whole entry): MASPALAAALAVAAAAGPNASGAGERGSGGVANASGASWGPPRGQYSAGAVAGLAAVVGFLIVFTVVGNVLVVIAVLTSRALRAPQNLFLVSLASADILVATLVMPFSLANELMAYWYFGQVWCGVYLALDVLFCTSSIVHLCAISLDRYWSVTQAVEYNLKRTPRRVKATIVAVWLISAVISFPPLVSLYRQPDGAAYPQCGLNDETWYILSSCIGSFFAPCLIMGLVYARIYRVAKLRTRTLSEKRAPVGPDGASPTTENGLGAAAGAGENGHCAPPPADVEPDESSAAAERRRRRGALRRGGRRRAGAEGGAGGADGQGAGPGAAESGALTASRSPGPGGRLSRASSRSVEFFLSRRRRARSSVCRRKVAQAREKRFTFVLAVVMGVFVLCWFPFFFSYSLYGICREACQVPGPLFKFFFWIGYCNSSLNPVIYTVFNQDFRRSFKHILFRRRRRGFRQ

## OC[C@H]1O[C@@H](n2cnc3c(NCc4ccc(O)cc4)ncnc32)[C@H](O)[C@@H]1O [T1-11, N ^6-(4-hydroxybenzyl)adenine riboside]
Adrenergic α 2C
  inhibition at 10 µM: 10%
[1]
  inhibition at 10 µM: 5%
R6/2 mice
  Blood pressure: did not change the blood pressure of R6/2 mice
  Heart rate: did not affect their heart rate and blood pressure
Adrenomedullin AM1
  inhibition at 10 µM: 11%
Opiate δ (OP1, DOP)
  inhibition at 10 µM: 19%
[2]
  inhibition at 10 µM: 3%
[3]
  inhibition at 10 µM: -5%
Human A3R; 100 µM T1-11
  GTP binding compared to 2-Cl-IB-MECA (3 µM): less than 50%
Human A3R; A3 adenosine receptor, GTPγS binding, n.s. = not significant
  Function: n.s.
[4]
  inhibition at 10 µM: -1%
Bombesin, Non-Selective
  % Inhibition: 6%
Dopamine D1
  inhibition at 10 µM: -13%
Orphanin ORL1
  inhibition at 10 µM: 10%
Sigma σ1
  inhibition at 10 µM: 7%
[5]
  inhibition at 10 µM: 10%
Sigma σ2
  inhibition at 10 µM: -3%
Glutamate, AMPA
  % Inhibition: -9%
Vasopressin V1A
  inhibition at 10 µM: 0%
Purinergic P 2Y
  % Inhibition: 17%
Muscarinic M2
  inhibition at 10 µM: 4%
Somatostatin sst4
  inhibition at 10 µM: 5%
Endothelin ETA
  inhibition at 10 µM: 3%
[6]
  inhibition at 10 µM: 1%
Erythropoietin EPOR
  inhibition at 10 µM: 3%
Vasopressin V2
  inhibition at 10 µM: -5%
Insulin
  % Inhibition: 4%
[7]
  inhibition at 10 µM: 2%
Glucocorticoid
  inhibition at 10 µM: -10%
[8]
  % Inhibition: -3%
[9]
  inhibition at 10 µM: 7%
Adrenergic β 3
  inhibition at 10 µM: -1%
